Results published in publication PMC10791743, “Selective CK1α degraders exert antiproliferative activity against a broad range of human cancer cell lines” (Nature Communications, 2024).
Values joined by “and” are separate entries in the source; they are usually repeats but may differ in a detail not shown here. Identical values can stand only once.

What was measured:
[1] = target: T1, CK1α-CRBN ternary complex (Homo sapiens, UniProt P48729+Q96SW2); assay: Live cell CK1α-CRBN ternary complex NanoBRET assay; type: cell-based
T1 construct: engineered by CRISPR/Cas9 to express endogenous CK1α (HEK293 cells) or IKZF1 (Jurkat cells) with a HiBiT tag; CS3023104 (cells)
Protocol: CSNK1A1CK1α-HiBiT HEK293 LgBiT stable cells weretransfected with a HaloTag-CRBN vector (Promega, Cat. #N269A) using Fugene HD (Promega, Cat. #E2311). […] Plates were incubated overnight at 37 °C with 5% CO2. On day 3, a dose–response curve was generated by performing 3-fold dilutions of each compound including a DMSO-only control in OptiMEM I Reduced Serum Medium, no phenol red supplemented with 4% FBS. Cells were treated with MG132 (Selleckchem, Cat. #S2619) for 30 min before being treated with the dilution series of compounds. Plates were incubated for 2 h at 37 °C with 5% CO2. After 2 h, plates were read using NanoBRET Nano-Glo substrate (Promega #N1573) on a GloMax Discover following the manufacturer’s instructions. No ligand controls were subtracted from each sample and normalized to the no compound DMSO control to obtain Fractional BRET values. EC50 values were calculated for each compound curve.

UCSD-AML1 cells = assay: CTG viability, UCSD-AML1; type: cell-based, human; conditions: for IC50: UCSD-AML cells, replicate values
Protocol: After establishing the potency and selectivity of our lead CK1α degraders, we investigated their effect on a panel of AML and ALL cell lines (Fig. 3a).
The primary screen was performed in 384-well format using the CellTiter Glo (CTG) luminescent cell viability assay (Promega) as previously described. 3630 compounds from the St. Jude proprietary molecular glue library were screened against 9 human cancer cell lines (HD-MB03, MB004, MB002, MHH-CALL4, MOLM-13, TF-1, HEL, OCI-AML3, AML193). Each cell line was cultured in the complete medium recommended by the vendor and seeded in Corning 8804 BC white 384-well assay plates at densities of 1000, 1000, 1500, 7500, 1250, 156, 625, 1250, 1250 cells per well for HD-MB03, MB004, MB002, MHH-CALL4, MOLM-13, TF-1, HEL, OCI-AML, AML193, respectively. After overnight incubation at 37 °C in a humidified 5% CO2 incubator, cells were treated with compounds in dose–response format using a Pintool on a Biomek FX^P Laboratory Automation Workstation (Beckman Coulter). After 72 h of incubation, cell proliferation was assessed using a CellTiter-Glo (CTG) luminescent cell viability assay (Promega) according to the manufacturer’s instructions. Luminescence signal was measured using an EnVision plate reader (PerkinElmer).
HD-MB03 cell line was obtained from Drs. Milde, Witt and Deubzer[52]. HD-MB03 and MB004 cells were grown in a neurobasal medium supplemented with glutamine, streptomycin, penicillin, B27, EGF, bFGF, and heparin as previously described. MB002 and MB004 cells were obtained from Dr Yoon-Jae Cho[54]. MB002 cells were cultured in 80% neurobasal medium supplemented with glutamine, streptomycin, penicillin, B27, and 20% conditioned media from previous passages; EGF, bFGF, and heparin were also added to the medium. MHH-CALL4, NALM-16, MHH-CALL-2 cells were obtained from the German Collection of Microorganisms and Cell Cultures GmbH (DSMZ, Germany). PER-117 cells were obtained from Telethon Kids Institute (Perth, Australia). The cells were cultured in RPMI1640 medium supplemented with 10% FBS (Hyclone), Penicillin/Streptomycin (100 units/mL), and Glutamine (100 µM) except for MHH-CALL-2 cells where 20% FBS were used. MOLM-13 cells were obtained from DSMZ (ACC 554) and cultured in RPMI-1640 media (Gibco) supplemented with 20% FBS (R&D Systems) and 100 U/ml penicillin-streptomycin (Gibco). HNT-34 cells were purchased from DSMZ (ACC 600) and cultured in RPMI-1640 media supplemented with 20% FBS and 100 U/ml penicillin-streptomycin. Kasumi-3 cells were purchased from ATCC (CRL-2725) and cultured in RPMI-1640 media supplemented with 20% FBS and 100 U/ml penicillin-streptomycin. […]

T1 sequence (Q96SW2 whole entry): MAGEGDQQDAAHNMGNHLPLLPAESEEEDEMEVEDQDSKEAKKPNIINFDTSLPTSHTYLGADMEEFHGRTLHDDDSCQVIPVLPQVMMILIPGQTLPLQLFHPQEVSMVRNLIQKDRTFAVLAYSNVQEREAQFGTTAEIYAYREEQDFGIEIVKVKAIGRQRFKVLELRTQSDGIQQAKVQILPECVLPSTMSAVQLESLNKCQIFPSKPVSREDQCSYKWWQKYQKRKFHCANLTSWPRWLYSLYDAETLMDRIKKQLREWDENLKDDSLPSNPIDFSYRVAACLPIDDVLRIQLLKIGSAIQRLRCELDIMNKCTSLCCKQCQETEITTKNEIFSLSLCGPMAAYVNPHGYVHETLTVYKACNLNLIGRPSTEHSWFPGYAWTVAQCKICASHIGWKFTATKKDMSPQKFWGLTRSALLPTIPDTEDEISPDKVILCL
T1 sequence (P48729 whole entry): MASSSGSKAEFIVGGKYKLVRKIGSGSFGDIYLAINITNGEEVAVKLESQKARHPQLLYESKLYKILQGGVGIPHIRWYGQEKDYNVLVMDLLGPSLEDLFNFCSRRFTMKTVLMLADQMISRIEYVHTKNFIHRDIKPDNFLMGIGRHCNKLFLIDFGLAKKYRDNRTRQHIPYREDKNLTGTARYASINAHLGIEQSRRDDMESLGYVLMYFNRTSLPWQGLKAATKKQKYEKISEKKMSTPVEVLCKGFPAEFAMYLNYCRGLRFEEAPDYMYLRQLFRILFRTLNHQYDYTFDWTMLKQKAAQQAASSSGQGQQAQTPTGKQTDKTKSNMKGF
T1 sequence (Q16531 whole entry partner): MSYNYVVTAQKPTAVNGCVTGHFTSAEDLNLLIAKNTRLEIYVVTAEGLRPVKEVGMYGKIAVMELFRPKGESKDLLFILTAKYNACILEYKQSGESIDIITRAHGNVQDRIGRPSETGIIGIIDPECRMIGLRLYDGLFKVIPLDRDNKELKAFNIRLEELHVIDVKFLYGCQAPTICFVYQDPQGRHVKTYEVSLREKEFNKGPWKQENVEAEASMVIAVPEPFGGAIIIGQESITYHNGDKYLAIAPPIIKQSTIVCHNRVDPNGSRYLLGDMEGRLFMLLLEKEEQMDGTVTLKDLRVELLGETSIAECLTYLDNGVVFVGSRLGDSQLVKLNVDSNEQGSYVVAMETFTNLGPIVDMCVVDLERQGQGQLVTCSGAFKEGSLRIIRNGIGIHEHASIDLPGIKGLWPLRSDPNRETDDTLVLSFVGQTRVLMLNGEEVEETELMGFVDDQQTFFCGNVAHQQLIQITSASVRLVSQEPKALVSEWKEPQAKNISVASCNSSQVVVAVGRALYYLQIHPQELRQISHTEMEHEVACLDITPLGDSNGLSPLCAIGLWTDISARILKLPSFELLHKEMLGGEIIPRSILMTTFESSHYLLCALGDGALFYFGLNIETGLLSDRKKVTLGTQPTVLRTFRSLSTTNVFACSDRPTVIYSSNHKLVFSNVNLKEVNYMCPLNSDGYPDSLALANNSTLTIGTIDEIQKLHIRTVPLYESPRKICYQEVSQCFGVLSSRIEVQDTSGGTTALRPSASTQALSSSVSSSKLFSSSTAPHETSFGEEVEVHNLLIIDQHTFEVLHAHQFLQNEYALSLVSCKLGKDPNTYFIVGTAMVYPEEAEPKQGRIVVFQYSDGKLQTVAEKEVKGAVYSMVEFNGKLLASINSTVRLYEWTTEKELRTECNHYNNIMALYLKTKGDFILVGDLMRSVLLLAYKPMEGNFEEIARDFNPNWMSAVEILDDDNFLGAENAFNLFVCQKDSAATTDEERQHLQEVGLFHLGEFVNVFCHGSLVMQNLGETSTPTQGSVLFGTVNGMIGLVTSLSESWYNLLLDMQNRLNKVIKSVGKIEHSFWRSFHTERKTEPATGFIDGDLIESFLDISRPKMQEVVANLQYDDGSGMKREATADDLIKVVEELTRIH

Row | SMILES | CK1a: CRBN Ternary Complex NanoBRET Ratio ([1]; 0.111 uM) | CK1a: CRBN Ternary Complex NanoBRET Ratio, Normalized ([1]; 0.111 uM) | CK1a: CRBN Ternary Complex NanoBRET Ratio ([1]; 0.333 uM) | CK1a: CRBN Ternary Complex NanoBRET Ratio, Normalized ([1]; 0.333 uM) | CK1a: CRBN Ternary Complex NanoBRET Ratio ([1]; 1 uM) | CK1a: CRBN Ternary Complex NanoBRET Ratio, Normalized ([1]; 1 uM) | CK1a: CRBN Ternary Complex NanoBRET Ratio ([1]; 3 uM) | CK1a: CRBN Ternary Complex NanoBRET Ratio, Normalized ([1]; 3 uM) | CK1a: CRBN Ternary Complex NanoBRET Ratio ([1]; 10 uM, replicates) | CK1a: CRBN Ternary Complex NanoBRET Ratio, Normalized ([1]; 10 uM, replicates) | Activity against UCSD-AML1 cells (UCSD-AML1 cells; CTG) | IC50 (UCSD-AML1 cells) | Ternary complex formation (NanoBRET signal) ([1]; 2 h treatment) | IC50 (UCSD-AML1 cells; Homo sapiens)
1 | O=C1CCC(N2Cc3c(CNC(=O)c4ccc(F)cc4)cccc3C2=O)C(=O)N1 (stereo not shown) [SJ7095] | 3.3 mBU and 3.11 mBU and 3.22 mBU and 2.76 mBU | 3.03 and 2.85 and 2.95 and 2.53 | 4.47 mBU and 5.14 mBU and 4.06 mBU and 4.1 mBU | 4.10 and 4.71 and 3.72 and 3.76 | 5.33 mBU and 5.06 mBU and 5.38 mBU and 4.31 mBU | 4.89 and 4.64 and 4.93 and 3.95 | 5.47 mBU and 7.05 mBU and 5.71 mBU and 6.74 mBU | 5.01 and 6.46 and 5.23 and 6.18 | 7.23 mBU and 6.62 mBU and 6.74 mBU and 6.49 mBU | 6.63 and 6.07 and 6.18 and 5.95 | – | – | – | –
2 | O=C1CCC(N2Cc3cc(Nc4noc5ccccc45)ccc3C2=O)C(=O)N1 (stereo not shown) [SJ3149] | 3.47 mBU and 2.55 mBU and 2.79 mBU | 23.75 and 17.45 and 19.07 | 4.12 mBU and 3.68 mBU and 3.78 mBU | 28.17 and 25.18 and 25.82 | 4.59 mBU and 4.78 mBU and 4.4 mBU | 31.39 and 32.66 and 30.10 | 4.96 mBU and 4.79 mBU and 5.46 mBU | 33.90 and 32.75 and 37.33 | 5.57 mBU and 5.32 mBU and 5.78 mBU | 38.09 and 36.40 and 39.49 | sub-nanomolar activity | 1 nM and 0.4 nM and 1.1 nM | most robust complex formation | –
3 | Cc1cccc(C(=O)Nc2ccc3c(c2)CN(C2CCC(=O)NC2=O)C3=O)c1 (stereo not shown) [SJ0040] | – | – | – | – | – | – | – | – | – | – | – | 2.1 nM | – | 3 nM
